Data from the supplement of paper PMC10307832.

Columns and labels:
Assay in all cases: relative viability (nuclei count vs DMSO), 5 days (fraction); higher = more cells survive
BAY61-3606 + Lapatinib = compound: COC1=C(C=C(C=C1)C2=CC3=NC=CN3C(=N2)NC4=C(C=CC=N4)C(=O)N)OC [BAY61-3606] + CS(=O)(=O)CCNCc1ccc(-c2ccc3ncnc(Nc4ccc(OCc5cccc(F)c5)c(Cl)c4)c3c2)o1 [Lapatinib] (partner 2 µM)
Procedure, shortened: (§1)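 After 5 days of treatment, lung cancer cells in 1536-well plates were fixed and stained in a single step (final 0.05% Triton X-100, 1% formaldehyde, 1 ug/ml Hoechst) and their nuclei counted on 4× images. Treatment had been applied by pin tool the day after seeding as one drug alone or as a fixed anchor-drug dose with five library-drug doses (not always all listed) in √10 steps. Relative viability is the nuclei count of treated wells divided by that of vehicle wells, and values are medians of duplicate plates.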

BAY61-3606 + Foretinib = compound: COC1=C(C=C(C=C1)C2=CC3=NC=CN3C(=N2)NC4=C(C=CC=N4)C(=O)N)OC [BAY61-3606] + COc1cc2c(Oc3ccc(NC(=O)C4(C(=O)Nc5ccc(F)cc5)CC4)cc3F)ccnc2cc1OCCCN1CCOCC1 [Foretinib] (partner 0.25 µM)
Procedure, shortened: as §1

Doxorubicin + AZD7762 = compound: COc1cccc2c1C(=O)c1c(O)c3c(c(O)c1C2=O)C[C@@](O)(C(=O)CO)C[C@@H]3O[C@H]1C[C@H](N)[C@H](O)[C@H](C)O1 [Doxorubicin] + NC(=O)Nc1cc(-c2cccc(F)c2)sc1C(=O)N[C@H]1CCCNC1 [AZD7762] (partner 0.2 µM)
Procedure, shortened: as §1

Doxorubicin + OSI-027 = compound: COc1cccc2c1C(=O)c1c(O)c3c(c(O)c1C2=O)C[C@@](O)(C(=O)CO)C[C@@H]3O[C@H]1C[C@H](N)[C@H](O)[C@H](C)O1 [Doxorubicin] + COc1cccc2cc(-c3nc([C@H]4CC[C@H](C(=O)O)CC4)n4ncnc(N)c34)[nH]c12 [OSI-027] (partner 0.5 µM)
Procedure, shortened: as §1

Row | Cell Line | relative viability (BAY61-3606 + Lapatinib; first compound 0.02 µM) | relative viability (BAY61-3606 + Lapatinib; first compound 0.06325 µM) | relative viability (BAY61-3606 + Lapatinib; first compound 0.2 µM) | relative viability (BAY61-3606 + Lapatinib; first compound 0.6325 µM) | relative viability (BAY61-3606 + Lapatinib; first compound 2 µM) | relative viability (BAY61-3606 + Foretinib; first compound 0.02 µM) | relative viability (BAY61-3606 + Foretinib; first compound 0.06325 µM) | relative viability (BAY61-3606 + Foretinib; first compound 0.2 µM) | relative viability (BAY61-3606 + Foretinib; first compound 0.6325 µM) | relative viability (BAY61-3606 + Foretinib; first compound 2 µM) | relative viability (Doxorubicin + AZD7762; first compound 0.001 µM) | relative viability (Doxorubicin + AZD7762; first compound 0.003162 µM) | relative viability (Doxorubicin + AZD7762; first compound 0.01 µM) | relative viability (Doxorubicin + AZD7762; first compound 0.03162 µM) | relative viability (Doxorubicin + AZD7762; first compound 0.1 µM) | relative viability (Doxorubicin + OSI-027; first compound 0.001 µM) | relative viability (Doxorubicin + OSI-027; first compound 0.003162 µM) | relative viability (Doxorubicin + OSI-027; first compound 0.01 µM) | relative viability (Doxorubicin + OSI-027; first compound 0.03162 µM) | relative viability (Doxorubicin + OSI-027; first compound 0.1 µM)
1 | 201T | 1.08 | 1.01 | 1.11 | 1.03 | 0.996 | 1.19 | 1.05 | 1.13 | 1.17 | 1.11 | 0.626 | 0.756 | 0.642 | 0.556 | 0.577 | 0.494 | 0.838 | 0.724 | 0.638 | 0.274
2 | A549 | 1.09 | 1.15 | 1.05 | 0.953 | 0.902 | 1.11 | 0.989 | 0.853 | 0.969 | 0.809 |  |  |  |  |  |  |  |  |  | 
3 | A-427 | 1.07 | 1.1 | 1.05 | 1.04 | 1.01 | 1.16 | 1.01 | 1.04 | 1.24 | 0.925 | 0.733 | 0.857 | 0.713 | 0.463 | 0.482 | 0.427 | 0.506 | 0.429 | 0.43 | 0.442
4 | ABC-1 | 1.34 | 1.03 | 1.23 | 1.05 | 0.98 | 1.19 | 0.973 | 0.971 | 1.11 | 0.907 | 0.443 | 0.937 |  | 0.655 | 0.6 | 0.431 | 0.494 | 0.424 | 0.306 | 0.32
5 | BEN | 0.938 | 0.694 | 0.679 | 0.757 | 0.787 | 0.701 | 0.69 | 0.723 | 0.654 | 0.911 | 0.96 | 0.65 | 0.82 | 0.562 | 0.624 | 0.301 | 0.28 | 0.335 | 0.301 | 0.29
6 | CAL-12T | 0.805 | 0.596 | 0.613 | 0.768 | 0.637 | 1.12 | 1.19 | 1 | 1.19 | 0.656 | 0.727 | 0.673 | 0.529 | 0.668 | 0.438 | 0.609 | 0.695 | 0.515 | 0.194 | 0.146
7 | COR-L23 | 0.872 | 1.08 | 0.826 | 1.04 | 0.834 | 0.999 | 0.944 | 0.963 | 0.992 | 0.865 |  |  |  |  |  | 0.753 | 0.912 | 0.741 | 0.452 | 0.193
8 | COR-L 105 | 0.355 | 0.378 | 0.418 | 0.417 | 0.351 | 1.32 | 1.36 | 0.884 | 1.05 | 0.605 |  |  |  |  |  | 0.71 | 0.623 | 0.556 | 0.428 | 0.34
9 | Calu-6 | 1.09 | 1.23 | 1.09 | 1.02 | 0.923 | 0.894 | 0.905 | 0.793 | 0.773 | 0.617 |  |  |  |  |  |  |  |  |  | 
10 | ChaGo-K-1 |  |  |  |  |  | 0.868 | 0.834 | 0.93 | 0.948 | 0.788 | 0.857 | 0.922 | 0.873 | 0.846 | 0.811 | 0.587 | 0.588 | 0.63 | 0.439 | 0.398
11 | EBC-1 | 0.218 | 0.228 | 0.181 | 0.243 | 0.244 | 0.105 | 0.0977 | 0.0899 | 0.0956 | 0.102 |  |  |  |  |  |  |  |  |  | 
12 | EKVX | 0.365 | 0.184 | 0.214 | 0.198 | 0.193 | 0.986 | 0.673 | 0.768 | 0.978 | 0.695 | 0.719 | 0.844 | 0.794 | 0.725 | 0.486 | 0.727 | 0.66 | 0.702 | 0.639 | 0.695
13 | EMC-BAC-2 | 0.882 | 0.969 | 0.861 | 1.11 | 0.921 | 1.1 | 0.992 | 1.02 | 1.11 | 0.738 | 1.11 | 1.03 | 0.89 | 0.636 | 0.691 | 0.5 | 0.353 | 0.379 | 0.239 | 0.197
14 | HCC-44 | 1.02 | 1.02 | 1.02 | 1.06 | 1.21 |  |  |  |  |  | 0.938 | 1.02 | 1.01 | 1.04 | 0.993 | 0.35 | 0.575 | 0.63 | 0.381 | 0.322
15 | IA-LM | 0.92 | 0.841 |  | 0.981 | 0.58 | 1.23 | 1.09 | 1.01 | 1.13 | 0.959 |  |  |  |  |  |  |  |  |  | 
16 | LCLC-103H |  |  |  |  |  | 0.81 | 0.83 | 0.832 | 0.701 | 0.681 | 0.781 | 0.815 | 0.75 | 0.767 | 0.826 | 0.482 | 0.436 | 0.516 | 0.405 | 0.454
